Blank lines part the entries; values can stand above or below the compound they belong to.
Legend:
[1] = tested on: lipid peroxidation of soy bean phospholipids; test: Ascorbate/Fe^2+-dependent lipid peroxidation; type: biochemical; conditions: inhibition of ascorbate/Fe^2+-dependent lipid peroxidation by 50%; pH 7.4, room temperature, 30 min
Description: (§1) The most important feature of the compounds of the invention is their efficacy as free-radical scavengers or antioxidants. An assay system measuring the concentration of the compounds of formulas (IA) and (IB) required to inhibit lipid peroxidation by 50% (IC50) was used. Other assays described below are the red blood cell fragility test used for measuring membrane stabilisation by indenoindoles. (Table 2), and protection by indenoindoles against cytotoxicity of N-methyl-N'-nitro-N-nitrosoguanidine (MNNG) in rat hepatocytes (Table 3). MNNG is a highly cytotoxic agent, the mechanism of action of which may involve a radical-mediated membrane destabilization.
For the ferrous/ascorbate lipid peroxidation system, 6.25 ml of 0.1 M potassium phosphate buffer (KPi), pH 7.4, was added to 12.5 mg dried soy bean phospholipids. After flushing with argon for 2 min, the suspension was sealed with five layers of Parafilm and sonicated until the suspension was translucent. The final reaction mixture was composed of 200 μg/ml phospholipid, 10 μM FeNH4 (SO4)2 or Fe(NH4)2 (SO4)2, and 100 μM ascorbic acid in 0.1 M KPi (pH 7.4), and the antioxidant to be tested in acetone or DMSO. The volume of vehicle never exceeded 1% of the total volume. The reaction was initiated by the addition of ascorbic acid plus iron. The reaction was continued at room temperature in a shaking water bath for 30 min and then stopped by the addition of […] of 0.5 M butylated hydroxytoluene in DMSO. The above procedure and the subsequent determination of 2-thibarbituric acid-reactive material is described in: Shertzer, H. G. et al, Biochem. Pharmacol. 37, 333 (1988).

red blood cells = test: Membrane stabilization in red blood cells (red blood cell fragility test); type: cell-based, rat; conditions: linear regression slope: percentage protection against osmolysis per μM protecting agent; pH 7.4
Description: as §1
The membrane stabilization effect of indenoindoles was assayed by the red blood cell fragility test. Rats were anesthetized with 65 mg phenobarbital per kg body weight by i.p. injection. Blood samples were removed into a heparinized syringe from the left ventricle and diluted 20-fold with buffer containing 140 mM NaCl, 10 mM sodium citrate and 5 mM glucose (pH 7.4) at 0° C. Diluted blood was kept on ice. A 0.75 ml aliquot of blood was added to a 4 ml cuvette containing 10 μl of the antioxidant dissolved in DMSO vehicle. After I min of gentle swirling, 0.75 ml of 0.9 NaCl or H2 O were added to the cuvette by forceful pipetting, and the absorbance at 656 nm was recorded with a Beckman DU-70 spectrophotometer. When H2 O was added in the absence of a stabilizing agent, absorbance decreased within 15 sec to 0.8. Addition of NaCl instead of H2 O gave a time-independent absorbance of 2.2. In the presence of increasing concentrations of stabilizing chemicals, the absorbance decrease observed after the addition of water was diminished. The % protection from osmolysis was obtained from the equation [[(2.2-0.8)- A]/(2.2-0.8)]×100%, where A=2.2 minus the absorbance decrease when water is added in the presence of a known concentration of chemical. The % protection is then plotted against several concentrations of the chemical being treated. The red blood cell fragility protective index value (RBC-PIV) is the linear regression slope of this plot, expressed as the percentage protection against osmolysis per μM protecting agent.

rat hepatocytes = test: Protection against cytotoxic effects of MNNG in hepatocytes; type: cell-based, rat (male Sprague-Dawley); conditions: Hepatocyte, concentration of compound required to extend by 1 hour the time needed for MNNG to kill 50% of the viable cells, 0.5 mM MNNG
Description: as §1
The protective effects of indenoindoles on MNNG-induced cytotoxicity was assayed with rat hepatocytes. Hepatocytes were prepared from male Sprague-Dawley rats by collagenase treatment as originally described by Zahlten and Stratman (Zahlten, R. N. and Stratman, F. W., Arch. Biochem. Biophys. 163, 600 (1988)), as modified by Reitman et al. (Reitman, F. A. Shertzer, H. G. and Berger, M. L., Biochem. Pharmacol. 37, 3183 (1988)). In order to improve viability, cells were centrifuged through 0.508g/ml Percoll (Pharmacia AB, Uppsala, Sweden) in 137 mM NaCl, 8.1 mM Na2 HPO4 and 1.5 mM KH2 PO4 (pH 7.4). Putative protecting agents were added to the cells as solutions in DMSO, with the final concentration of DMSO never exceeding 5 μl/ml of cell suspension. MNNG was added to a concentration of 0.5 mM as a solution in ethanol, giving a final concentration of ethanol of 1%; ethanol alone was by itself without effect. Viability was determined as the percentage of cells that excluded 0.2% trypan blue. Values are the concentration of compound required to extend by 1 hour, the time needed for MNNG to kill 50% of the viable cells.

mouse liver microsomes = conditions: NADPH-fortified mouse liver microsomes, initiated with CCl4; FASEB J. 2, A 407 (1988); cited from earlier work
lipid peroxidation = conditions: Fd Chem. Toxicol. 26, 517 (1988); cited from earlier work

Compound: Clc1cccc2c3c([nH]c12)-c1ccccc1C3 [6-Chloro-DHII, 5,10-Dihydro-6-chloroindeno[1,2-b]indole]
pIC50 [1]: 5.2

Compound: COc1ccc2[nH]c3c(c2c1)-c1ccccc1C3 [9-Methoxy-iso-DHII, 5,6-Dihydro-9-methoxyindeno[2,1-b]indole]
pIC50 [1]: 6.4

Compound: Cn1c2c(c3ccccc31)Cc1ccccc1-2 [5-Methyl-DHII, 5,10-Dihydro-5-methylindeno[1,2-b]indole]
pIC50 [1]: 5.1
RBC-PIV (red blood cell fragility protective index value) (red blood cells): 0.74 %/μM
IC50 (rat hepatocytes): 6 µM

Compound: Cc1ccc2[nH]c3c(c2c1)Cc1ccccc1-3 [8-Methyl-DHII, 5,10-Dihydro-8-methylindeno[1,2-b]indole]
pIC50 [1]: 5.7

Compound: COc1ccc2[nH]c3c(c2c1)Cc1ccccc1-3 [8-Methoxy-DHII, 5,10-Dihydro-8-methoxyindeno[1,2-b]indole]
pIC50 [1]: 6.2

Compound: c1ccc2c(c1)Cc1c-2[nH]c2ccccc12 [DHII, 5,10-Dihydroindeno[1,2-b]indole]
pIC50 [1]: 5.8
RBC-PIV (red blood cell fragility protective index value) (red blood cells): 0.49 %/μM
IC50 (rat hepatocytes): 3.1 µM
inhibition of lipid peroxidation (mouse liver microsomes): inhibiting lipid peroxidation
inhibition of lipid peroxidation (lipid peroxidation): potent inhibitor of lipid peroxidation

Compound: CCNc1ccc2c(c1)Cc1c-2[nH]c2ccccc12 [2-Ethylamino-DHII, 5,10-Dihydro-2-(N-ethylamino)indeno[1,2-b] indole]
pIC50 [1]: 7.9

Compound: Cc1cc(C)c2[nH]c3c(c2c1)Cc1ccccc1-3 [6,8-Dimethyl-DHII, 5,10-Dihydro-6,8-dimethylindeno[1,2-b]indole]
pIC50 [1]: 6.1

Compound: CC1(C)c2ccccc2-c2[nH]c3ccccc3c21 [10,10-Dimethyl-DHII, 5,10-Dihydro-10,10-dimethylindeno[1,2-b]indole]
pIC50 [1]: 6.1
RBC-PIV (red blood cell fragility protective index value) (red blood cells): 0.48 %/μM

Compound: c1ccc2c(c1)Cc1[nH]c3ccccc3c1-2 [iso-DHII, 5,6-Dihydroindeno[2,1-b]indole]
pIC50 [1]: 5.8
RBC-PIV (red blood cell fragility protective index value) (red blood cells): 0.50 %/μM
IC50 (rat hepatocytes): 3.4 µM
inhibition of lipid peroxidation (mouse liver microsomes): inhibiting lipid peroxidation

More lines, main results first:

pIC50 [1]: 5.0
Compound: Cc1c(C)c2c(c(C)c1O)CCC(C)(CCCC(C)CCCC(C)CCCC(C)C)O2 (stereo not drawn) [α-Tocopherol (Vitamin E), α-Tocopherol, reference compound]
RBC-PIV (red blood cell fragility protective index value) (red blood cells): 0.10 %/μM

pIC50 [1]: 5.6
Compound: CC(C)c1ccc2[nH]c3c(c2c1)Cc1ccccc1-3 [8-Isopropyl-DHII, 5,10-Dihydro-8-iso-propylindeno[1,2-b]indole]

pIC50 [1]: 5.6
Compound: Fc1ccc2[nH]c3c(c2c1)Cc1ccccc1-3 [8-Fluoro-DHII, 5,10-Dihydro-8-fluoroindeno[1,2-b]indole]

pIC50 [1]: 5.7
Compound: CC1c2ccccc2-c2[nH]c3ccccc3c21 (centres unmarked) [10-Methyl-DHII, 5,10-Dihydro-10-methylindeno[1,2-b]indole]

pIC50 [1]: 7.4
Compound: CCN(CC)c1ccc2c(c1)Cc1c-2[nH]c2ccccc12 [2-Diethylamino-DHII, 5,10-Dihydro-2-(N,N-diethylamino)indeno[1,2-b]indole]
